One experiment has as its target EGFR L858R (Homo sapiens, UniProt P00533, L858R). In words: Kinase inhibitory activity against EGFR bearing the L858R mutation. It counts as biochemical. The settings on record: 10 μM ATP, read-out: IC50 for kinase inhibition, EGFR L858R. In a few lines: (§1)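 With ATP at 10 μM, single-replicate 10-point dose curves starting at 3 μM top concentration were run against each EGFR form: wild-type, L858R, and the L858R/T790M double mutant.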

Experiment [1] concerns the target human EGFR (native sequence) (Homo sapiens, UniProt P00533). In words: Kinase inhibitory activity against human EGFR (native sequence). The class given is biochemical. The settings on record: 10 μM ATP, read-out: IC50 for kinase inhibition, EGFR. In a few lines:
as §1

In experiment [2] the target is T1, BaF3 cells expressing the target EGFR mutations (Homo sapiens, UniProt P00533, T790M, cells depend on it, form not given).
T1 construct: IC50, BAF3 EGFR DEL T790M PURO POOL; other: BAF3 EGFR DEL T790M PURO POOL cells, MTT; other: BAF3 EGFR DEL T790M PURO POOL cells; MTT
In words: Antiproliferative activity (MTT) against BaF3 cells expressing the target EGFR mutations. The class given is cell-based. The note with it: BAF3 EGFR DEL T790M PURO POOL cells, read-out: IC50, BAF3 EGFR DEL T790M PURO POOL. The method in brief:
(§2)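 MTT read-out; BaF3 lines carrying EGFR mutations vs wildtype-EGFR BaF3 control.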

Experiment [3] has as its target T2, BaF3 cells expressing the target EGFR mutations (Homo sapiens, UniProt P00533, T790M/L858R, cells depend on it).
T2 construct: IC50, BAF3 EGFR L858R-T790M PURO POOL; other: BAF3 EGFR L858R-T790M PURO POOL cells, MTT; IC50, BAF3 EGFR L858R-T790M PURO POOL; other: BAF3 EGFR L858R-T790M PURO POOL cells; MTT
Described as above. The class given is cell-based. The settings on record: BAF3 EGFR L858R-T790M PURO POOL cells, read-out: IC50, BAF3 EGFR L858R-T790M PURO POOL. In a few lines:
as §2

A further experiment addresses EGFR L858R/T790M (Homo sapiens, UniProt P00533, L858R/T790M). Briefly: Kinase inhibitory activity against EGFR bearing the L858R/T790M double mutation. The class given is biochemical. The note with it: 10 μM ATP, read-out: IC50 for kinase inhibition, EGFR L858R T790M. In a few lines:
as §1

For experiment [4], the system named is BaF3 cells expressing wildtype EGFR. In words: Antiproliferative activity (MTT) against control BaF3 cells expressing wildtype EGFR. The class given is cell-based. The settings on record: Mus musculus. The method in brief:
as §2

Where [5] appears, read: EGFR L858R/T790M double mutation.
Setting [6] is: 10 pt curves, 3 μM top concentration.

The structures appear in SMILES notation. Read-outs that look alike come from different tables or passages of the source. Some results are limits rather than exact numbers.

For orientation: IC50 means the concentration at which inhibition is half-maximal.

EGFR L858R/T790M, sequence (P00533 25-1210 T790M/L858R): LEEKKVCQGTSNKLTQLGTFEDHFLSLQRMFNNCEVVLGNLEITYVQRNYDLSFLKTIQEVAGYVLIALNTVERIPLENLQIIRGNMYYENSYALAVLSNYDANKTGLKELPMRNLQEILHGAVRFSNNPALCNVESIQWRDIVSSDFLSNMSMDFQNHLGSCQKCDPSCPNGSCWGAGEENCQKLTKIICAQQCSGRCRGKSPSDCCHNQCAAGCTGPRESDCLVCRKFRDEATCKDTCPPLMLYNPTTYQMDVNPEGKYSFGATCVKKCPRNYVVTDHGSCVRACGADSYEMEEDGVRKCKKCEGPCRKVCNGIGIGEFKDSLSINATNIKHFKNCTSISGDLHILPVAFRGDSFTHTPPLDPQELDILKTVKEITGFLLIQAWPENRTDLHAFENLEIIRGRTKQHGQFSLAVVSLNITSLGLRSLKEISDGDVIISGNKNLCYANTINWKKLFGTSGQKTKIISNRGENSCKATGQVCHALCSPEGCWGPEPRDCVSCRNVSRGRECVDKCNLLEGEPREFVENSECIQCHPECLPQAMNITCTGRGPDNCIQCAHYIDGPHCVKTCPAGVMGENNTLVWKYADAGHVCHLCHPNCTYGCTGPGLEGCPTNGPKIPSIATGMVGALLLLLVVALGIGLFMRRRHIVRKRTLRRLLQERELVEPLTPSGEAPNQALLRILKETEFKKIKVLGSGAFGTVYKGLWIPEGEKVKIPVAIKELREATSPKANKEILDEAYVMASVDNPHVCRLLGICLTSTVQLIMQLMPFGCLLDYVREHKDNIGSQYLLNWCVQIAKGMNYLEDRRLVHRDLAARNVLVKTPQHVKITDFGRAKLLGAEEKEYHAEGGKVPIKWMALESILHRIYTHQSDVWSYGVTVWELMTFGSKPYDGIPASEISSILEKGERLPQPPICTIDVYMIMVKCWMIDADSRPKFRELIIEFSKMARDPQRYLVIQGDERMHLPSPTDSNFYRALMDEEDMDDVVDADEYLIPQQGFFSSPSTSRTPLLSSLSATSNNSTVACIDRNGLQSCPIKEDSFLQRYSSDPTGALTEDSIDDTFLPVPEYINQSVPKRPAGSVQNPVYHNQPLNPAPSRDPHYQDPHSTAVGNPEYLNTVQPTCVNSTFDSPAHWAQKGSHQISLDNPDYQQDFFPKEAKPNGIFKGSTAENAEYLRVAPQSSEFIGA
EGFR L858R, sequence (P00533 25-1210 L858R): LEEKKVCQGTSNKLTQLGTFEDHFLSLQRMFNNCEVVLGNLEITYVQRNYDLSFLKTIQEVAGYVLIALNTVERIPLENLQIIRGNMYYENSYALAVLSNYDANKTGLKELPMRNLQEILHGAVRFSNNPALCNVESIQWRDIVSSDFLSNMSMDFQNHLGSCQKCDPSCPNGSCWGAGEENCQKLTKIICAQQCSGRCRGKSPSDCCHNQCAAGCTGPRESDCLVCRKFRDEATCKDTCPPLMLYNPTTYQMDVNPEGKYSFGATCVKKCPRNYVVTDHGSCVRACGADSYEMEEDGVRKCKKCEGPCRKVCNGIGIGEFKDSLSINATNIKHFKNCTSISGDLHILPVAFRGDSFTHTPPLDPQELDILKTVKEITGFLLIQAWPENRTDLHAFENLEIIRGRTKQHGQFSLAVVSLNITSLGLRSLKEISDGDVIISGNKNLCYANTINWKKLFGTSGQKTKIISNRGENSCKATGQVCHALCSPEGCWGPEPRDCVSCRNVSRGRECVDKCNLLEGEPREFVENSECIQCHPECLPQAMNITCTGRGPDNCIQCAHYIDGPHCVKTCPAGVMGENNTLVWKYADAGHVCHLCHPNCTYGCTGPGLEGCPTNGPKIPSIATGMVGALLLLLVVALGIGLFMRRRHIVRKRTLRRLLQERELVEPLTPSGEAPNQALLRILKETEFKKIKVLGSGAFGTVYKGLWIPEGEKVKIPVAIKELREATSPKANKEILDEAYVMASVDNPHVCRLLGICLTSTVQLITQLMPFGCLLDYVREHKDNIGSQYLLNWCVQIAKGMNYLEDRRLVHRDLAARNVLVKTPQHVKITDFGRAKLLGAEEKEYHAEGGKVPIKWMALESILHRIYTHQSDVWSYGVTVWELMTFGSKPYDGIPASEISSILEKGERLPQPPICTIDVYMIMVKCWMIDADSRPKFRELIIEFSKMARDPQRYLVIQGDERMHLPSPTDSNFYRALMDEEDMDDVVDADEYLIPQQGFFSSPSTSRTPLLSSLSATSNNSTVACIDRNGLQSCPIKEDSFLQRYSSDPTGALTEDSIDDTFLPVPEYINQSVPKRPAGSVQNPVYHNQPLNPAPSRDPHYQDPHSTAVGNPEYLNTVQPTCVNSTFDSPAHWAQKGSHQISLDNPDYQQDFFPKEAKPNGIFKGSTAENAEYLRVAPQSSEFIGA
human EGFR (native sequence), sequence (P00533 25-1210): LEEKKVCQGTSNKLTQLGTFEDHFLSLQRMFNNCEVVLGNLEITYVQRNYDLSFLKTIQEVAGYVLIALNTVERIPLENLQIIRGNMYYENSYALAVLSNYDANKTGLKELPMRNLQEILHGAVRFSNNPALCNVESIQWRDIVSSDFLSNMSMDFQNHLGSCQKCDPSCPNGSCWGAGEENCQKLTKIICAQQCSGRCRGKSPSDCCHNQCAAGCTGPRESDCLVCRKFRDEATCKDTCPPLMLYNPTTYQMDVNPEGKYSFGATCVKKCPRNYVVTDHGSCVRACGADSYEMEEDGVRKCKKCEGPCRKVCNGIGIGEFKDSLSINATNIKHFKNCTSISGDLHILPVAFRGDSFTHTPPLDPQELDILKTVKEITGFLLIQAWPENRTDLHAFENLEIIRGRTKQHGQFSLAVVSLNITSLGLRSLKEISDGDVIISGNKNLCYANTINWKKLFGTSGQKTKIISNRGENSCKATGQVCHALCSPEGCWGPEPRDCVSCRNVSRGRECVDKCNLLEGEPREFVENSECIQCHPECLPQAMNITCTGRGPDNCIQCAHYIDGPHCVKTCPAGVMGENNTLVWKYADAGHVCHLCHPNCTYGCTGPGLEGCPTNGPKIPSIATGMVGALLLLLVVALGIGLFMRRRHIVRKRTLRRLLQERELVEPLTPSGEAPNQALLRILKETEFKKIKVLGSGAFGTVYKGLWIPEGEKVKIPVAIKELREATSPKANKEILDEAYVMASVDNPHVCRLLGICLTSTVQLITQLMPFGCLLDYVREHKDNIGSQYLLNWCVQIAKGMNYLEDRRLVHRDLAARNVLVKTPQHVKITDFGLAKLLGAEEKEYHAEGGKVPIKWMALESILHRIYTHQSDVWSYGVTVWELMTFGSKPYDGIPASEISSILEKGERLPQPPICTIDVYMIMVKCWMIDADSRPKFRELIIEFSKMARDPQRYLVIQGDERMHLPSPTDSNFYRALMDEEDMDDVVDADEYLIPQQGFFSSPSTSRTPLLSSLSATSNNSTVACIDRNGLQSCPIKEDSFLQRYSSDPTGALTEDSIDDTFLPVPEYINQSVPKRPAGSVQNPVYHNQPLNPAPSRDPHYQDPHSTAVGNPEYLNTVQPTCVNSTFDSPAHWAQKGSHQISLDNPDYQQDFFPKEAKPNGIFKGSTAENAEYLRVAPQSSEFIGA
T2 sequence (P00533 whole entry T790M/L858R): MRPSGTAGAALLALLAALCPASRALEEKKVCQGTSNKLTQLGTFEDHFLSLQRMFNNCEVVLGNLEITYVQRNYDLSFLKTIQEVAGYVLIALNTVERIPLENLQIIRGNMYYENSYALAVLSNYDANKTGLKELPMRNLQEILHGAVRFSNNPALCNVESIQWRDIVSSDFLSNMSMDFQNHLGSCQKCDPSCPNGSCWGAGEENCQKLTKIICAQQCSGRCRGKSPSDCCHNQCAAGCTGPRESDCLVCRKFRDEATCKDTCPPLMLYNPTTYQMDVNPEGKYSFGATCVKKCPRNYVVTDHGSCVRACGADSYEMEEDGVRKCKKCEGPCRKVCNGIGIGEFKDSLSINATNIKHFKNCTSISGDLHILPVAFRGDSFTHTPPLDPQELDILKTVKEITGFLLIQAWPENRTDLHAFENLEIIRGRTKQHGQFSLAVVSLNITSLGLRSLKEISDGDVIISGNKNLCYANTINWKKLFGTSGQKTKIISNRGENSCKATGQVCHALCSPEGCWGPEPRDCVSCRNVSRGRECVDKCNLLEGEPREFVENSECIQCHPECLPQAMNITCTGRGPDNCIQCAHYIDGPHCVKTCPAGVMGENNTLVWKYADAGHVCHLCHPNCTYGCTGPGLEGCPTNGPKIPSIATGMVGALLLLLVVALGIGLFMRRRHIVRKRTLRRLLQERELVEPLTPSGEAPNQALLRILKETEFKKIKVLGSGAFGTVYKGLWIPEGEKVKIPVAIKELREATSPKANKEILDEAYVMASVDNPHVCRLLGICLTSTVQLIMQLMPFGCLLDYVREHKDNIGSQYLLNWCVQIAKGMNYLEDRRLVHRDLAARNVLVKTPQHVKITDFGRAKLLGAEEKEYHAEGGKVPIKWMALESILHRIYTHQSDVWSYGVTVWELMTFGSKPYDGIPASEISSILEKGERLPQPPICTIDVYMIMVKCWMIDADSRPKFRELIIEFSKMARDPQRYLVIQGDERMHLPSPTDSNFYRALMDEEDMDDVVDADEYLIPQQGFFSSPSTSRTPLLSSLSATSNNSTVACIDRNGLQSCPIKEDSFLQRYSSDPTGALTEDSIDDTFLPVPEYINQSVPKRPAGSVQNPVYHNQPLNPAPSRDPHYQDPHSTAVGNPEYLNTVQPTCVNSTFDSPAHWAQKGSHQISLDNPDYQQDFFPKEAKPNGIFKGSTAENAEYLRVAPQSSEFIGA

For the compound `C=CC(=O)Nc1cc(Nc2ncc(Cl)c(Nc3ccccc3P(C)(C)=O)n2)c(OC)cc1N1CCC(N2CCCN(C)CC2)CC1` [Example 71, N-(5-((5-chloro-4-((2-(dimethylphosphoryl)phenyl)amino)pyrimidin-2-yl)amino)-4-methoxy-2-(4-(4-methyl-1,4-diazepan-1-yl)piperidin-1-yl)phenyl)acrylamide], the IC50 at EGFR L858R (EGFR L858R) was less than 50 nM; in experiment [1] (human EGFR native sequence), less than 50 nM; on EGFR L858R/T790M (setting [5]) it was less than 50 nM; in experiment [4] (BAF3 PARENTAL cells (control)), no less than 250 nM. Further, the GI50 is 50 to 100 nM in experiment [2] and 101 to 250 nM in experiment [3].
`COc1cc(F)c(NC(=O)C#CCN2CCCC2)cc1Nc1ncc(Cl)c(Nc2ccccc2P(C)(C)=O)n1` [Example 89, N-(5-((5-chloro-4-((2-(dimethylphosphoryl)phenyl)amino)pyrimidin-2-yl)amino)-2-fluoro-4-methoxyphenyl)-4-(pyrrolidin-1-yl)but-2-ynamide]: the 50% inhibitory concentration (IC50) is less than 50 nM on EGFR L858R (EGFR L858R), less than 50 nM in experiment [1] (human EGFR native sequence), less than 50 nM on EGFR L858R/T790M (setting [5]) and no less than 250 nM in experiment [4] (BAF3 PARENTAL cells (control)). Further, the GI50 in experiment [2] and in experiment [3] was less than 50 nM throughout.
In the case of `COc1ccc(NC(=O)/C=C/CN2CCCCC2)cc1Nc1ncc(Cl)c(Nc2ccccc2P(C)(C)=O)n1` [Example 92, (E)—N-(3-((5-chloro-4-((2-(dimethylphosphoryl)phenyl)amino)pyrimidin-2-yl)amino)-4-methoxyphenyl)-4-(piperidin-1-yl)but-2-enamide], the IC50 was less than 50 nM at EGFR L858R (EGFR L858R), less than 50 nM in experiment [1] (human EGFR native sequence), less than 50 nM on EGFR L858R/T790M (setting [5]) and no less than 250 nM in experiment [4] (BAF3 PARENTAL cells (control)). In addition, the GI50 in experiment [2] and in experiment [3] was less than 50 nM each time.
As to `C=CC(=O)Nc1cc(Nc2ncc(Cl)c(Nc3ccccc3P(C)(C)=O)n2)c(OC)cc1C#CCN(C)CCOC` [Example 161, N-(5-((5-chloro-4-((2-(dimethylphosphoryl)phenyl)amino)pyrimidin-2-yl)amino)-4-methoxy-2-(3-((2-methoxyethyl)(methyl)amino)prop-1-yn-1-yl)phenyl)acrylamide], the 50% inhibitory concentration (IC50) at EGFR L858R (setting [6]) is less than 50 nM; in experiment [1] (setting [6]) it was less than 50 nM; at EGFR L858R/T790M (setting [6]), less than 50 nM; in experiment [4] (BAF3 parental cells) it was no less than 250 nM. The GI50 in experiment [2] and in experiment [3] was less than 50 nM each time.
Turning to `C=CC(=O)Nc1ccc(OC)c(Nc2ncc(C#N)c(Nc3ccccc3P(C)(C)=O)n2)c1` [Example 139, N-(3-((5-cyano-4-((2-(dimethylphosphoryl)phenyl)amino)pyrimidin-2-yl)amino)-4-methoxyphenyl)acrylamide], the IC50 is less than 50 nM at EGFR L858R (setting [6]), less than 50 nM in experiment [1] (setting [6]), less than 50 nM at EGFR L858R/T790M (setting [6]) and no less than 250 nM in experiment [4] (BAF3 parental cells). Besides, the GI50 in experiment [2] is 101 to 250 nM; in experiment [3], no less than 250 nM.
Consider `C=CC(=O)Nc1cc(Nc2ncc(Cl)c(Nc3ccccc3P(C)(C)=O)n2)c(OC)cc1N1CCC(N2CCCC2)C1` (stereo not drawn) [Example 36, N-(2-([1,3′-bipyrrolidin]-1′-yl)-5-((5-chloro-4-((2-(dimethylphosphoryl)phenyl)amino)pyrimidin-2-yl)amino)-4-methoxyphenyl)acrylamide], for which the IC50 is less than 50 nM at EGFR L858R (EGFR L858R), less than 50 nM in experiment [1] (human EGFR native sequence), less than 50 nM on EGFR L858R/T790M (setting [5]) and no less than 250 nM in experiment [4] (BAF3 PARENTAL cells (control)). Further, the GI50 in experiment [2] and in experiment [3] was less than 50 nM throughout.
Take `C=C(Cl)C(=O)Nc1ccc(OC)c(Nc2ncc(Cl)c(Nc3ccccc3P(C)(C)=O)n2)c1` [Example 132, 2-chloro-N-(3-((5-chloro-4-((2-(dimethylphosphoryl)phenyl)amino)pyrimidin-2-yl)amino)-4-methoxyphenyl)acrylamide]: the concentration for half-maximal inhibition (IC50) on EGFR L858R (setting [6]) is less than 50 nM; in experiment [1] (setting [6]), less than 50 nM; at EGFR L858R/T790M (setting [6]), less than 50 nM; in experiment [4] (BAF3 parental cells) it was no less than 250 nM. Also, the GI50 is less than 50 nM in experiment [2] and 101 to 250 nM in experiment [3].
For `C=CC(=O)Nc1cc(Nc2ncc(Cl)c(Nc3ccccc3P(C)(C)=O)n2)c(OC)cc1CN1CCN(C)CC1` [Example 55, N-(5-((5-chloro-4-((2-(dimethylphosphoryl)phenyl)amino)pyrimidin-2-yl)amino)-4-methoxy-2-((4-methylpiperazin-1-yl)methyl)phenyl)acrylamide], the half-inhibitory concentration (IC50) on EGFR L858R (EGFR L858R) is less than 50 nM; in experiment [1] (human EGFR native sequence) it was less than 50 nM; on EGFR L858R/T790M (setting [5]), less than 50 nM; in experiment [4] (BAF3 PARENTAL cells (control)) it was no less than 250 nM. In addition, the GI50 was less than 50 nM in experiment [2] and 50 to 100 nM in experiment [3].
Consider `C=CC(=O)Nc1cc(Nc2ncc(Cl)c(Nc3ccccc3P(C)(C)=O)n2)c(OC)cc1N1CCC(N(C)C)C1` (stereo not drawn) [Example 24, N-(5-((5-chloro-4-((2-(dimethylphosphoryl)phenyl)amino)pyrimidin-2-yl)amino)-2-(3-(dimethylamino)pyrrolidin-1-yl)-4-methoxyphenyl)acrylamide], for which the 50% inhibitory concentration (IC50) on EGFR L858R (EGFR L858R) is less than 50 nM; in experiment [1] (human EGFR native sequence), less than 50 nM; on EGFR L858R/T790M (setting [5]), less than 50 nM; in experiment [4] (BAF3 PARENTAL cells (control)), no less than 250 nM. The GI50 in experiment [2] and in experiment [3] was less than 50 nM in each case.
`C=CC(=O)Nc1cc(Nc2ncc(Cl)c(Nc3ccccc3P(C)(C)=O)n2)c(OC)cc1N1CCC(N(C)C)CC1` [Example 23, N-(5-((5-chloro-4-((2-(dimethylphosphoryl)phenyl)amino)pyrimidin-2-yl)amino)-2-(4-(dimethylamino)piperidin-1-yl)-4-methoxyphenyl)acrylamide]: the half-inhibitory concentration (IC50) at EGFR L858R (EGFR L858R) was less than 50 nM; in experiment [1] (human EGFR native sequence), less than 50 nM; on EGFR L858R/T790M (setting [5]), less than 50 nM; in experiment [4] (BAF3 PARENTAL cells (control)) it was no less than 250 nM. Further, the values for the GI50 in experiment [2] and in experiment [3] were less than 50 nM and 101 to 250 nM, respectively.
For the compound `C=CC(=O)Nc1cc(Nc2ncc(Cl)c(Nc3ccccc3P(C)(C)=O)n2)c(OC)cc1C#CC(C)(C)N(C)C` [Example 155, N-(5-((5-chloro-4-((2-(dimethylphosphoryl)phenyl)amino)pyrimidin-2-yl)amino)-2-(3-(dimethylamino)-3-methylbut-1-yn-1-yl)-4-methoxyphenyl)acrylamide], the IC50 on EGFR L858R (setting [6]) is less than 50 nM; in experiment [1] (setting [6]), less than 50 nM; on EGFR L858R/T790M (setting [6]) it was less than 50 nM; in experiment [4] (BAF3 parental cells), no less than 250 nM. Besides, the GI50 in experiment [2] and in experiment [3] was less than 50 nM throughout.
As for `C=CC(=O)Nc1ccc(OC)c(Nc2ncc(Cl)c(Nc3ccc(OCCN4CCCCC4)cc3P(C)(C)=O)n2)c1` [Example 108, N-(3-((5-chloro-4-((2-(dimethylphosphoryl)-4-(2-(piperidin-1-yl)ethoxy)phenyl)amino)pyrimidin-2-yl)amino)-4-methoxyphenyl)acrylamide], the IC50 was less than 50 nM on EGFR L858R (setting [6]), less than 50 nM in experiment [1] (setting [6]), less than 50 nM at EGFR L858R/T790M (setting [6]) and no less than 250 nM in experiment [4] (BAF3 parental cells). The GI50 in experiment [2] and in experiment [3] was less than 50 nM each time.
As for `C=CC(=O)Nc1cc(Nc2ncc(Cl)c(Nc3ccccc3P(C)(C)=O)n2)c(OC)cc1C#CCN(C)C(C)C` [Example 166, N-(5-((5-chloro-4-((2-(dimethylphosphoryl)phenyl)amino)pyrimidin-2-yl)amino)-2-(3-(isopropyl(methyl)amino)prop-1-yn-1-yl)-4-methoxyphenyl)acrylamide], the IC50 on EGFR L858R (setting [6]) is less than 50 nM; in experiment [1] (setting [6]), less than 50 nM; on EGFR L858R/T790M (setting [6]) it was less than 50 nM; in experiment [4] (BAF3 parental cells), no less than 250 nM. For the same compound, the GI50 in experiment [2] and in experiment [3] was less than 50 nM in each case.
